# Measurements from paper PMC6533572, “Elucidation of the Differences in Cinobufotalin’s Pharmacokinetics Between Normal and Diethylnitrosamine-Injured Rats: The Role of P-Glycoprotein” (Frontiers in Pharmacology, 2019).
# Where two headings read alike, the source gives them in different places.
# Assays:
# HepG2 cells = assay: Cell viability CCK-8 assay, HepG2 cells; type: cell-based; conditions: Homo sapiens, 40 nM, 60 nM and 80 nM, 24 h, read-out: inhibition of HepG2 cells growth (CCK-8)
# Experimental: (§1) Hepatocellular cancer cells (HepG2 and Huh-7) were purchased from the cell bank of the Chinese Academy of Science (Shanghai, China). These cells were cultured in Dulbecco’s modified Eagle’s medium (DMEM) containing 10% fetal bovine serum (FBS), penicillin (100 units/mL) and streptomycin (100 units/mL) in a humidified atmosphere with 5% CO2 at 37 °C.
# (§2) Furthermore, the effect of cinobufotalin at 40, 60, 80 nM on hepatocellular cancer cells (HepG2 and Huh-7 cells) viability was conducted using Cell Counting Kit - 8 (CCK-8) assay (Sigma-Aldrich, St Louis, MO). In brief, cells were seeded into 96-well plates at 5 × 10^3 cells/well and cultured for 24 h in DMEM medium as described in 1.1 section. Then various concentrations of cinobufotalin (40, 60, 80 nM) were added into cells. After 24 h treatment, 10 μL of CCK-8 solution was added into every well of the plate. The plate was incubated in the incubator for other 4 h, and then the absorbance was measured at 450 nm using a microplate reader (Thermo Scientific, Rockford, IL). The cell viability was calculated by the formula: cell viability (100%) = (OD value of the treated wells - OD value of the blank control wells) / (OD value of the negative control wells - OD value of the blank control wells).
# Huh-7 cells = assay: Cell viability CCK-8 assay, Huh-7 cells; type: cell-based; conditions: Homo sapiens, 40 nM, 60 nM and 80 nM, 24 h, read-out: inhibition of Huh-7 cells growth (CCK-8)
# Experimental: as §1, §2
# Water solubility = type: physicochemical; conditions: pH 7.0
# Source text: Traditional Chinese Medicine (TMC) is widely used due to high efficiency and low toxicity in the treatment of various diseases. Toad venom (also known as Chan’su) is derived from the dried skin secretions of giant toads (Bufo gargarizans Cantor or Bufo melanostictus Suhneider) and is currently used in clinical practice, such as Cinobufacini injection, to treat HCC ([Kamano et al., 2002]; [Tang et al., 2008]; [Hu et al., 2011]; [Zhang et al., 2018]). Cinobufotalin (Figure 1A), a bufadienolide in chemical structure, is one of the major anti-tumor components of Cinobufacini injection ([Tao et al., 2010]; [Zhang et al., 2018]). […] This implied that cinobufotalin has shown excellent druggability.
# [1] = Stability in 50% acetonitrile solution; type: physicochemical
# Experimental: In addition, the stabilities of cinobufotalin at 20, 200, and 2000 ng/mL in different storage conditions were evaluated, including short term stability (such as 25°C for 4, 8, 12, and 24 h and 4°C for 4, 8, 12, and 24 h), long term stability (-80°C for 10 days) and three freeze-thaw cycles in rat plasma. Stabilities were expressed as the concentrations after different operations to the concentration at time zero. All of the samples were processed as described in Preparation of rat plasma samples section. A 5 μL aliquot was injected to UPLC-QTOF/MS for analyses.
# In addition, we also evaluated the stability of cinobufotalin in 50% accetonitrile solution at 4°C and room temperature (25°C) after storage for 4, 8, 12, and 24 h.
# [2] = Bidirectional transport across MDCK II cell monolayers; type: in vitro ADME, canine; conditions: dog; for efflux ratio at 120 min, 20 μM: read-out: ER
# Experimental: (§3) MDCK II and MDCK-MDR1 cells were seeded into 12-well Transwell polycarbonate membrane inserts (12 mm diameter inserts, 0.4 μm pore size, Corning Costar) at a density of 6 × 10^5 cells/well. Cells were cultured at 37°C under 5% CO2 in DMEM with 10% FBS, and the culture medium was refreshed every other day. Experiments were conducted when the tight junctional cell monolayer formed. First, the cells were washed three times using 37°C preheated HBSS buffer (pH = 7.4) and preincubated in a shaking incubator for 30 min at 37°C. Then the transport studies were initiated after the blank HBSS buffer and dosing solution (HBSS buffer containing cinobufotalin at a final concentration of 20 μM) were added to the receiver compartment and donor compartment, respectively. Verapamil, if used, was added to both compartment during the incubated period. The volumes of the apical side (AP) and basolateral side (BL) were 0.5 and 1.5 mL, respectively. Samples (100 μL) were taken from the receiver compartment every 30 min during the incubation period of 120 min, and then replaced with the same volume of […]. At the end of the incubated period, aliquots of 100 μL were withdrawn from the donor compartment to calculated mass balance. All samples were mixed with 50 μL acetonitrile and centrifuged at 4°C (12,000 g, 10 min. The supernatant was subjected to UPLC-QTOF/MS for analyses.
# (§4) The apparent permeability (cm/s) from apical-to-basal (Papp,AP-BL) and basal-to-apical (Papp,BL-AP) were calculated according to the following Equation (4), where dQ/dt is the rate of drug permeation (nmol/s), A is the area of polycarbonate membrane (A = 1.12 cm^2), and C0 is the initial concentration of cinobufotalin in the donor compartment.
# (§5) The efflux ratio (ER) and net flux ratio were calculated according to Equations (5) and (6) as described in our previous research ([Sun et al., 2017]).
# (§6) (5) ER=Papp, BL−AP/Papp, AP−BL
# P-glycoprotein (P-gp) = target: T1, P-glycoprotein (P-gp) (Homo sapiens, UniProt P08183); assay: Bidirectional transport across MDCK-MDR1 cell monolayers; type: in vitro ADME; conditions: for Net flux ratio: ER MDCK-MDR1 / ER MDCK II, cinobufotalin 20 μM; for Papp A→B at 120 min, 20 μM / Papp B→A at 120 min, 20 μM / efflux ratio at 120 min, 20 μM: dog, MDCK-MDR1, cinobufotalin 20 μM; for efflux ratio at 120 min, 20 μM: read-out: ER
# T1 construct: expressed in transfected cells; host or cells: MDCK II (Madin Darby canine kidney) cells stably transfected with the MDR1 gene
# Experimental: as §3, §4, §5, §6
# (6) Net flux ratio=ERMDCK−MDRI/ERMDCK II
# [3] = pH 7.4, with verapamil (concentration not stated), in both compartments, cinobufotalin 20 μM, with verapamil
# [4] = pH 7.4, with verapamil (concentration not stated), in both compartments, with verapamil
# T1 sequence (P08183 whole entry): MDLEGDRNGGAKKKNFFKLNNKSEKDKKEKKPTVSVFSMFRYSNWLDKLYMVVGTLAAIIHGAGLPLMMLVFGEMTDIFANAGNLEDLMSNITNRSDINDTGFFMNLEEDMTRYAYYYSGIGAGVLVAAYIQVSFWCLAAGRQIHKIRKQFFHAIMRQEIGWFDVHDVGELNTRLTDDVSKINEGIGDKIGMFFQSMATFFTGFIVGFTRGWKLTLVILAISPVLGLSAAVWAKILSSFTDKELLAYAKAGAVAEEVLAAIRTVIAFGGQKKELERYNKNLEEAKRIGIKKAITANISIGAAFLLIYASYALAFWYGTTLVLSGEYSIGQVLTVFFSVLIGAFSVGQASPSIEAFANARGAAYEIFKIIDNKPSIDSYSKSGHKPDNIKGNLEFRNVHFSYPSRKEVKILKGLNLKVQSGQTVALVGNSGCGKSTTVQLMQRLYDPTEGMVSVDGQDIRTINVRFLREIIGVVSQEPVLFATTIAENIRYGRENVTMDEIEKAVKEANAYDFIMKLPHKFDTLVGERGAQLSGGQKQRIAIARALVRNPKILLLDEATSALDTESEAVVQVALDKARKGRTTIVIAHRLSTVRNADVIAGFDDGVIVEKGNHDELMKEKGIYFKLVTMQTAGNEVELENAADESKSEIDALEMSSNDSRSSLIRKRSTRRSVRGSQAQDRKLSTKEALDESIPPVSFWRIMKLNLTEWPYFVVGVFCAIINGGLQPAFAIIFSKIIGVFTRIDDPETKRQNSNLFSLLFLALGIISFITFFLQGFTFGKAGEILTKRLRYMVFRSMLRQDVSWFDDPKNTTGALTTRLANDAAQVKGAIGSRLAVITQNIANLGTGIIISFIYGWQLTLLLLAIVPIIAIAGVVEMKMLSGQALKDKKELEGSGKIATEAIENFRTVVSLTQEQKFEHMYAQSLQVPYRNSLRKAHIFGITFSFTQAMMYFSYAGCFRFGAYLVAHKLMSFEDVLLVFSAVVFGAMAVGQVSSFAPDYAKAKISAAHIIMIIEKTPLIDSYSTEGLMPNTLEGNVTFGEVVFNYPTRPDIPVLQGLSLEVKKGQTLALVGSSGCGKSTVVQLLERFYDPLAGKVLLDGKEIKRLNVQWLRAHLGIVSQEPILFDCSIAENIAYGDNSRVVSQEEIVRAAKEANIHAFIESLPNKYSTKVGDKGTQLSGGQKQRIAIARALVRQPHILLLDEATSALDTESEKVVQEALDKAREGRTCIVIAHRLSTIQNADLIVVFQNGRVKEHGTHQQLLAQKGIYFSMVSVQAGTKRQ
structure (smiles),measurement,setting,value
CC(=O)O[C@H]1[C@H]2O[C@]23[C@@H]2CC[C@]4(O)C[C@@H](O)CC[C@]4(C)[C@H]2CC[C@]3(C)[C@H]1c1ccc(=O)oc1 [Cinobufotalin],inhibition at 0.04 µM,HepG2 cells,< 15%
same,inhibition at 0.04 µM,Huh-7 cells,< 15%
same,solubility,Water solubility,117 µg/mL
same,"Stability in 50% Acetonitrile solution, 4°C, 4 h",[1]; 20 ng/mL,97.5 ± 5.7%
same,"Stability in 50% Acetonitrile solution, 4°C, 8 h",[1]; 20 ng/mL,101.9 ± 3.6%
same,"Stability in 50% Acetonitrile solution, 4°C, 12 h",[1]; 20 ng/mL,99.1 ± 2.5%
same,"Stability in 50% Acetonitrile solution, 4°C, 24 h",[1]; 20 ng/mL,100.4 ± 2.7%
same,"Stability in 50% Acetonitrile solution, 25°C, 4 h",[1]; 20 ng/mL,99.5 ± 4.4%
same,"Stability in 50% Acetonitrile solution, 25°C, 8 h",[1]; 20 ng/mL,97.1 ± 2.3%
same,"Stability in 50% Acetonitrile solution, 25°C, 12 h",[1]; 20 ng/mL,97.7 ± 4.6%
same,"Stability in 50% Acetonitrile solution, 25°C, 24 h",[1]; 20 ng/mL,95.5 ± 4.3%
same,"Stability in 50% Acetonitrile solution, 4°C, 4 h",[1]; 200 ng/mL,102.6 ± 6.8%
same,"Stability in 50% Acetonitrile solution, 4°C, 8 h",[1]; 200 ng/mL,99.5 ± 4.0%
same,"Stability in 50% Acetonitrile solution, 4°C, 12 h",[1]; 200 ng/mL,97.4 ± 2.9%
same,"Stability in 50% Acetonitrile solution, 4°C, 24 h",[1]; 200 ng/mL,96.7 ± 2.6%
same,"Stability in 50% Acetonitrile solution, 25°C, 4 h",[1]; 200 ng/mL,100.1 ± 2.8%
same,"Stability in 50% Acetonitrile solution, 25°C, 8 h",[1]; 200 ng/mL,101.2 ± 2.0%
same,"Stability in 50% Acetonitrile solution, 25°C, 12 h",[1]; 200 ng/mL,99.5 ± 4.3%
same,"Stability in 50% Acetonitrile solution, 25°C, 24 h",[1]; 200 ng/mL,99.0 ± 2.8%
same,"Stability in 50% Acetonitrile solution, 4°C, 4 h",[1]; 2000 ng/mL,102.0 ± 5.0%
same,"Stability in 50% Acetonitrile solution, 4°C, 8 h",[1]; 2000 ng/mL,103.7 ± 3.5%
same,"Stability in 50% Acetonitrile solution, 4°C, 12 h",[1]; 2000 ng/mL,96.3 ± 4.0%
same,"Stability in 50% Acetonitrile solution, 4°C, 24 h",[1]; 2000 ng/mL,97.9 ± 2.5%
same,"Stability in 50% Acetonitrile solution, 25°C, 4 h",[1]; 2000 ng/mL,100.3 ± 3.0%
same,"Stability in 50% Acetonitrile solution, 25°C, 8 h",[1]; 2000 ng/mL,99.1 ± 1.1%
same,"Stability in 50% Acetonitrile solution, 25°C, 12 h",[1]; 2000 ng/mL,98.4 ± 3.5%
same,"Stability in 50% Acetonitrile solution, 25°C, 24 h",[1]; 2000 ng/mL,100.5 ± 3.3%
same,"Papp A→B at 120 min, 20 μM","[2]; pH 7.4, cinobufotalin 20 μM",33.8 ± 1.1 ×10⁻⁶ cm/s
same,"Papp B→A at 120 min, 20 μM","[2]; pH 7.4, cinobufotalin 20 μM",35.9 ± 1.3 ×10⁻⁶ cm/s
same,"efflux ratio at 120 min, 20 μM","[2]; pH 7.4, cinobufotalin 20 μM",1.1
same,"Papp A→B at 120 min, 20 μM",[2]; [3],23.4 ± 2.2 ×10⁻⁶ cm/s
same,"Papp B→A at 120 min, 20 μM",[2]; [3],24.8 ± 2.7 ×10⁻⁶ cm/s
same,"efflux ratio at 120 min, 20 μM",[2]; [3],1.1
same,Net flux ratio,P-glycoprotein (P-gp),2.1
same,Net flux ratio,P-glycoprotein (P-gp); with verapamil,1.0
same,decrease of net flux ratio when verapamil was used,"P-glycoprotein (P-gp); MDCK-MDR1 vs MDCK II, with verapamil",50.7%
same,"Papp A→B at 120 min, 20 μM",P-glycoprotein (P-gp); [4],32.1 ± 1.5 ×10⁻⁶ cm/s
same,"Papp B→A at 120 min, 20 μM",P-glycoprotein (P-gp); [4],34.5 ± 2.3 ×10⁻⁶ cm/s
same,"efflux ratio at 120 min, 20 μM",P-glycoprotein (P-gp); [4],1.1
same,"Papp A→B at 120 min, 20 μM",P-glycoprotein (P-gp); pH 7.4,19.4 ± 1.3 ×10⁻⁶ cm/s
same,"Papp B→A at 120 min, 20 μM",P-glycoprotein (P-gp); pH 7.4,42.4 ± 1.5 ×10⁻⁶ cm/s
same,"efflux ratio at 120 min, 20 μM",P-glycoprotein (P-gp); pH 7.4,2.2
same,P-gp substrate identification,P-glycoprotein (P-gp); net flux ratio higher than 2 and reduction more than 50% with verapamil,substrate of P-gp
